Values joined by “and” are separate entries in the source; they are usually repeats but may differ in a detail not shown here. Equal entries are not always repeated. Where two headings read alike, the source gives them in different places.
Key:
Type in all cases: cell-based
[1] = biological target: protein kinases (human kinome) (Homo sapiens, UniProt O43683); conditions: for logFC: BUB1 (O43683); for logFC BUB1 (O43683): direction down
[2] = biological target: protein kinases (human kinome) (Homo sapiens, UniProt P42684); conditions: for logFC: ABL2 (P42684) protein abundance, degrader vs DMSO, down
[3] = biological target: protein kinases (human kinome) (Homo sapiens, UniProt P53667); conditions: LIMK1 (P53667-1)
[4] = biological target: T1, protein kinases (human kinome) (Homo sapiens, UniProt Q96L34); conditions: for logFC MARK4: Accession Q96L34-1
T1 sequence (Q96L34 1-752): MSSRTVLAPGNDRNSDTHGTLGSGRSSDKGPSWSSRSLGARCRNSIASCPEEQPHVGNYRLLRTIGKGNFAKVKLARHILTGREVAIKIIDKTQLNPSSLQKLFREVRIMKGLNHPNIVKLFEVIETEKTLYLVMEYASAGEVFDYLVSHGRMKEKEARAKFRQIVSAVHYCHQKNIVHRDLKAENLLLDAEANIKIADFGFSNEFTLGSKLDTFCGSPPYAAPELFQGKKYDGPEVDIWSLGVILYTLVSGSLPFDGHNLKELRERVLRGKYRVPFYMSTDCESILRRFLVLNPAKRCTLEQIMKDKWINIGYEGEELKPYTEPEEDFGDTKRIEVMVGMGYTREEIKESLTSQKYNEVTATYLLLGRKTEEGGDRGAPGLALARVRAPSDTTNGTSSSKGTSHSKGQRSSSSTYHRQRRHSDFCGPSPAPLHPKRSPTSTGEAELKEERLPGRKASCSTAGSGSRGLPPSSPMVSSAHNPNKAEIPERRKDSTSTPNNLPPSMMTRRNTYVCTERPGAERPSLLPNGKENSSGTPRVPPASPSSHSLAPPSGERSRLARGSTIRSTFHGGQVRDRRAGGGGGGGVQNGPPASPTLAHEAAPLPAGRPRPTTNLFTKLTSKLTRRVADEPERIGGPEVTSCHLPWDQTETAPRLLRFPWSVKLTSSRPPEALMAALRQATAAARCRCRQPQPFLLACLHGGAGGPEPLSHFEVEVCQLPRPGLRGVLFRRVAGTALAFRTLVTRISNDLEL

[5] = biological target: protein kinases (human kinome) (Homo sapiens, UniProt Q00535); conditions: for logFC of CDK5: Accession Q00535
[6] = biological target: protein kinases (human kinome) (Homo sapiens, UniProt Q00537); conditions: for logFC of CDK17: Accession Q00537; for logFC CDK17 (Q00537): direction of change down
[7] = biological target: protein kinases (human kinome) (Homo sapiens, UniProt Q8NI60); conditions: experiment wp160, 1 hr
[8] = direction down, experiment wp103
[9] = direction down, experiment wp105
[10] = direction down, experiment wp107
[11] = direction down, experiment wp160, 2 hr
[12] = direction down, experiment wp160, 4 hr
[13] = direction down, experiment wp172

protein kinases (human kinome) (Homo sapiens, UniProt P53667), sequence (P53667 whole entry): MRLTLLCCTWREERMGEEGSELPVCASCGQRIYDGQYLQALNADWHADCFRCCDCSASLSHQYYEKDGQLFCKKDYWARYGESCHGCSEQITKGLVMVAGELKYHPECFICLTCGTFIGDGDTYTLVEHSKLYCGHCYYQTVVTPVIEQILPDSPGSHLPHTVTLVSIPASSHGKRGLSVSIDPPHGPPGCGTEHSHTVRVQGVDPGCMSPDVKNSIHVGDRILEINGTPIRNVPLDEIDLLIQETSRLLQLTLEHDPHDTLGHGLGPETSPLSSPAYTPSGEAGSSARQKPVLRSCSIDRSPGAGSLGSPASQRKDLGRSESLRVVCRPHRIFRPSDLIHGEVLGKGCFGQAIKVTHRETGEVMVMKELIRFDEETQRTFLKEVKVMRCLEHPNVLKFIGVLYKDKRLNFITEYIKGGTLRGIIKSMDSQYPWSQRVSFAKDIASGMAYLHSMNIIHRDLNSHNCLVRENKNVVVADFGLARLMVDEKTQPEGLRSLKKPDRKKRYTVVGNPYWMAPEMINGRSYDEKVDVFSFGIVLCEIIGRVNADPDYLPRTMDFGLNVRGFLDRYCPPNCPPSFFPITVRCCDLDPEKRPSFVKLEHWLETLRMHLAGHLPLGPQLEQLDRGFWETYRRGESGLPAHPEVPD
protein kinases (human kinome) (Homo sapiens, UniProt O43683), sequence (O43683 whole entry): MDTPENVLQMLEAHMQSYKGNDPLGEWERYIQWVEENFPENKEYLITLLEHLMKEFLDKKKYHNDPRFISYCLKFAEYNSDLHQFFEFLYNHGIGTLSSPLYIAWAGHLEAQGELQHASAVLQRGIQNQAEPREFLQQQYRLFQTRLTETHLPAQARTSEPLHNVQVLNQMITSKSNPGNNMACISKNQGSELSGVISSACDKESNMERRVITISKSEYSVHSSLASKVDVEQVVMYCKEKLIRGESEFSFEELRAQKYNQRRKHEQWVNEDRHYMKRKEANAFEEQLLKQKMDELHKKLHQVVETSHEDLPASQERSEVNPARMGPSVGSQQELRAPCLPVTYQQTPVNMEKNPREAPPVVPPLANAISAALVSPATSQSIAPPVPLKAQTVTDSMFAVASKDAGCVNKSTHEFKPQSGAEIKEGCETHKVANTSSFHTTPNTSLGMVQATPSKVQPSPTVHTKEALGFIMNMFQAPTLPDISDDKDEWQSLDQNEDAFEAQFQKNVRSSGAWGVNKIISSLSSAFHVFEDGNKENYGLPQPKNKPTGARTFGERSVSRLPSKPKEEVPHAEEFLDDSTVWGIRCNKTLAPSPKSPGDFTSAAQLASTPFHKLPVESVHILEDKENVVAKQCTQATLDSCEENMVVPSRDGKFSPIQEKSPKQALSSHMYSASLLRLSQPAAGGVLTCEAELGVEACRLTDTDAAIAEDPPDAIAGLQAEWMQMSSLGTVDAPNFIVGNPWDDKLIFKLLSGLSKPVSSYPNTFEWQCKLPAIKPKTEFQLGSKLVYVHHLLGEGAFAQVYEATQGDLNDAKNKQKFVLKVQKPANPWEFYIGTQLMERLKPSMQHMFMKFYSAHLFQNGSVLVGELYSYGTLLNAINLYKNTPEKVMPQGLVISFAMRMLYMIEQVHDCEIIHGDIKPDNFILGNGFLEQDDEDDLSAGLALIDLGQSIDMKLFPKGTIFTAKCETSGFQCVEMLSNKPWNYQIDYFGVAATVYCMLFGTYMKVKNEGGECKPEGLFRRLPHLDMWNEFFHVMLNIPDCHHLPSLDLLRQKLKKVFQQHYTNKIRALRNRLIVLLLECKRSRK
protein kinases (human kinome) (Homo sapiens, UniProt P42684), sequence (P42684 whole entry): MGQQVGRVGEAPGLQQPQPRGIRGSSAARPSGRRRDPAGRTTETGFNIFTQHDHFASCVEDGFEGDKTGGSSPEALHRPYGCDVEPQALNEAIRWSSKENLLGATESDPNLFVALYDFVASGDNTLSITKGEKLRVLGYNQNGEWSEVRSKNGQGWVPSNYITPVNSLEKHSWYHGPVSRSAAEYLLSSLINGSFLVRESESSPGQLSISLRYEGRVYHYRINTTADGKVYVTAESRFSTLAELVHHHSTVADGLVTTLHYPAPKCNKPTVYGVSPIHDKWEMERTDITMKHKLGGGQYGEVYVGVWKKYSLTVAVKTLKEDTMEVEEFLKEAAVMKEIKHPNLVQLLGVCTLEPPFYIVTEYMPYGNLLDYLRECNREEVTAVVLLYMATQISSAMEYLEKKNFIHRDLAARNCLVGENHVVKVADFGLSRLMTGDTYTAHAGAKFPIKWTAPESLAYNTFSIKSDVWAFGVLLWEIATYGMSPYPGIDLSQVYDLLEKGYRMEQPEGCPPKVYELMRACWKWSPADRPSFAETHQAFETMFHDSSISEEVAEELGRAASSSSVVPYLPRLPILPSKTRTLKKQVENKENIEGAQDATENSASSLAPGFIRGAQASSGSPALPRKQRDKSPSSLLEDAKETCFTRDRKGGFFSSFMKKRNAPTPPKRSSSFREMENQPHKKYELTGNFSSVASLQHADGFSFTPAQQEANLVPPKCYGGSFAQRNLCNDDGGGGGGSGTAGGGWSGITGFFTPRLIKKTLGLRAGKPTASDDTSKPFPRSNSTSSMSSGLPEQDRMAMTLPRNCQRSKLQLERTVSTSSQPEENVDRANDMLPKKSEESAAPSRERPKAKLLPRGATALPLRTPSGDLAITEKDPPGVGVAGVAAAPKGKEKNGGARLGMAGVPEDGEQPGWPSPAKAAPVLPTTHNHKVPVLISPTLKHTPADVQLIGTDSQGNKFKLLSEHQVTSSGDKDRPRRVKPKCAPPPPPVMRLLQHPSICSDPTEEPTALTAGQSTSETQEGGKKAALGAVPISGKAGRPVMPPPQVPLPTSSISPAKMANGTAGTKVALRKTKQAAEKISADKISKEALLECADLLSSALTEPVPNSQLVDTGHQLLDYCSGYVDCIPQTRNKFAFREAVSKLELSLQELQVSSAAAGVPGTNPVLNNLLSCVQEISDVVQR
protein kinases (human kinome) (Homo sapiens, UniProt Q00535), sequence (Q00535 whole entry): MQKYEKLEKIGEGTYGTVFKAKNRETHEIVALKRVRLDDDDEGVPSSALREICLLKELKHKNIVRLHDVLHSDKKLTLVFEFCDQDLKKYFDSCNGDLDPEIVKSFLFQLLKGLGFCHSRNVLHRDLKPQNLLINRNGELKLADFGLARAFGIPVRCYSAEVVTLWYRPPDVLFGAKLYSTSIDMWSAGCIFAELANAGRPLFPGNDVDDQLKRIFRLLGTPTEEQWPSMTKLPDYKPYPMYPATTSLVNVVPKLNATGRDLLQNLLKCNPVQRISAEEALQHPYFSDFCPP
protein kinases (human kinome) (Homo sapiens, UniProt Q00537), sequence (Q00537 whole entry): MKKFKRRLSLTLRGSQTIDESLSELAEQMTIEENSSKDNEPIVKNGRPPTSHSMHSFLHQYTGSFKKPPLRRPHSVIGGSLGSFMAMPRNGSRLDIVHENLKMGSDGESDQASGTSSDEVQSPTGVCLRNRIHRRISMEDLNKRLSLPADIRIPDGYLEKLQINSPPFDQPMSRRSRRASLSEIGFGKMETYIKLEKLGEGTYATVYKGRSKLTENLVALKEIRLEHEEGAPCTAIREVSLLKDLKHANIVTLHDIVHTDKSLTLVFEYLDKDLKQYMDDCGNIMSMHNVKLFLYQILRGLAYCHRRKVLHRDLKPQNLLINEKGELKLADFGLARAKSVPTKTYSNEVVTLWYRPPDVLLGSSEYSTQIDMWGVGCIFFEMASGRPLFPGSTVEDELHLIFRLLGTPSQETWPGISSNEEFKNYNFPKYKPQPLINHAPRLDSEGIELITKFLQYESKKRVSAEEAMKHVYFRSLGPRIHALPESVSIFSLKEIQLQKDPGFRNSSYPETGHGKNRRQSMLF
protein kinases (human kinome) (Homo sapiens, UniProt Q8NI60), sequence (Q8NI60 163-647): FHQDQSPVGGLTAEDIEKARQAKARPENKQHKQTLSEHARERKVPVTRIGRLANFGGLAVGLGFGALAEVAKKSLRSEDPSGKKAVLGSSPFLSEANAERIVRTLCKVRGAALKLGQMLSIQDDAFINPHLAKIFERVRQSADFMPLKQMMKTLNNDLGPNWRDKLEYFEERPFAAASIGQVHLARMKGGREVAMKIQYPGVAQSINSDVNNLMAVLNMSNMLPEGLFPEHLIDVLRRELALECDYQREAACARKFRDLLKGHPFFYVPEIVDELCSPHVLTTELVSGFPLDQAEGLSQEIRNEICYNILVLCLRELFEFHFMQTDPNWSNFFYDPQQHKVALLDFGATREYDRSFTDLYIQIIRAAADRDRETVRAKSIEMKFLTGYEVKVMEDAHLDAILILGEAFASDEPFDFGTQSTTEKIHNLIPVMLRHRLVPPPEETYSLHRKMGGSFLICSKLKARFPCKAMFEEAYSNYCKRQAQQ

Cc1ccc(NC(=O)c2cccc(C(F)(F)F)c2)cc1N1Cc2cnc(Nc3ccc(N4CCN(Cc5cn(CCCCCOc6cccc7c6C(=O)N(C6CCC(=O)NC6=O)C7=O)nn5)CC4)nc3)nc2N(C)C1=O (stereo not shown) [DB0646, N-(3-(7-((6-(4-((1-(5-((2-(2,6-Dioxopiperidin-3-yl)-1,3-dioxoisoindolin-4-yl)oxy)pentyl)-1H-1,2,3-triazol-4-yl)methyl)piperazin-1-v)pyridin-3-yl)amino)-1-methyl-2-oxo-1,4-dihydropyrimido[4,5-d]pyrimidin-3(2H)-yl)-4-methylphenyl)-3-(trifluoromethyl)benzamide]
logFC ([1]; experiment wp045): −0.3378
logFC ([1]; experiment wp117): −0.3423
logFC ([1]; experiment wp152): −0.4014
logFC BUB1 (O43683) ([1]; Experiment wp045): −0.3378
logFC BUB1 (O43683) ([1]; Experiment wp117): −0.3423
logFC BUB1 (O43683) ([1]; Experiment wp152): −0.4014
BUB1 degradation ([1]; MOLT-4 and MM.1S cell lines): degraded
logFC ([2]; 4 hr): −0.5029
logFC ([2]; 8 hr): −0.7288
logFC [2]: −0.5941 and −0.5342 and −0.5362
logFC ABL2 (P42684) ([2]; Experiment wp045): −0.5941
logFC ABL2 (P42684) ([2]; Experiment wp107): −0.5342
logFC ABL2 (P42684) ([2]; experiment wp152): −0.5362
logFC ABL2 (P42684) ([2]; experiment wp160, 4 hr): −0.5029
logFC ABL2 (P42684) ([2]; experiment wp160, 8 hr): −0.7288
logFC LIMK1 ([3]; direction down, experiment wp045): −0.5293
logFC LIMK1 [3, 8]: −1.497
logFC LIMK1 [3, 9]: −0.5641
logFC LIMK1 [3, 10]: −0.9768
logFC LIMK1 ([3]; direction down, experiment wp117): −1.412
logFC LIMK1 [3, 11]: −0.7376
logFC LIMK1 [3, 12]: −1.563
logFC LIMK1 ([3]; direction down, experiment wp160, 8 hr): −2.36
logFC LIMK1 [3, 13]: −1.32
logFC LIMK1 ([3]; experiment wp045, down): −0.5293
logFC LIMK1 ([3]; experiment wp103, down): −1.497
logFC LIMK1 ([3]; experiment wp105, down): −0.5641
logFC LIMK1 ([3]; experiment wp107, down): −0.9768
logFC LIMK1 ([3]; experiment wp117, down): −1.412
logFC LIMK1 ([3]; experiment wp160, 2 hr, down): −0.7376
logFC LIMK1 ([3]; experiment wp160, 4 hr, down): −1.563
logFC LIMK1 ([3]; experiment wp160, 8 hr, down): −2.36
logFC LIMK1 ([3]; experiment wp172, down): −1.32

CC(C)S(=O)(=O)c1ccccc1Nc1nc(Nc2ccc(N3CCN(CCOCCNC(=O)CNc4cccc5c4C(=O)N(C4CCC(=O)NC4=O)C5=O)CC3)cc2)ncc1Cl (stereo not shown) [SK.3.91]
logFC MARK4 ([4]; experiment wp103): −1.326
logFC MARK4 ([4]; experiment wp107): −1.292
logFC MARK4 ([4]; experiment wp114): −1.3
logFC MARK4 ([4]; experiment wp133, 2 hr): −0.6282
logFC MARK4 ([4]; experiment wp133, 4 hr): −1.537
logFC MARK4 ([4]; experiment wp160, 4 hr): −1.529
logFC MARK4 (Q96L34-1) ([4]; experiment wp103): −1.326
logFC MARK4 (Q96L34-1) ([4]; experiment wp107): −1.292
logFC MARK4 (Q96L34-1) ([4]; experiment wp114): −1.3
logFC MARK4 (Q96L34-1) ([4]; experiment wp133, 2 hr): −0.6282
logFC MARK4 (Q96L34-1) ([4]; experiment wp133, 4 hr): −1.537
logFC MARK4 (Q96L34-1) ([4]; experiment wp160, 4 hr): −1.529
logFC ([1]; experiment wp133, 1 hr): −0.4907
logFC ([1]; experiment wp133, 2 hr): −0.4456
logFC ([1]; experiment wp133, 4 hr): −0.5963
logFC BUB1 (O43683) ([1]; Experiment wp133, 1 hr): −0.4907
logFC BUB1 (O43683) ([1]; Experiment wp133, 2 hr): −0.4456
logFC BUB1 (O43683) ([1]; Experiment wp133, 4 hr): −0.5963
logFC of CDK5 ([5]; experiment wp016): −1.126
logFC of CDK5 ([5]; experiment wp016, 1 uM): −1.429
logFC of CDK5 ([5]; experiment wp103): −1.043
logFC of CDK5 ([5]; experiment wp105): −0.931
logFC CDK5 (Q00535) ([5]; Experiment wp105, direction of change down): −0.931
logFC CDK5 (Q00535) ([5]; Experiment wp107): −1.014
logFC CDK5 (Q00535) ([5]; Experiment wp114): −0.468
logFC CDK5 (Q00535) ([5]; Experiment wp114, direction of change down): −0.468
logFC CDK5 (Q00535) ([5]; Experiment wp160, 2 hr): −0.6265
logFC CDK5 (Q00535) ([5]; Experiment wp172): −1.304
logFC CDK5 (Q00535) ([5]; experiment wp016, 1 uM, direction of change down): −1.429
logFC CDK5 (Q00535) ([5]; experiment wp016, direction of change down): −1.126
logFC CDK5 (Q00535) ([5]; experiment wp103, direction of change down): −1.043
logFC CDK5 (Q00535) ([5]; experiment wp107, direction of change down): −1.014
logFC CDK5 (Q00535) ([5]; experiment wp133, 2 hr): −0.6608
logFC CDK5 (Q00535) ([5]; experiment wp133, 2 hr, direction of change down): −0.6608
logFC CDK5 (Q00535) ([5]; experiment wp133, 4 hr): −1.242
logFC CDK5 (Q00535) ([5]; experiment wp133, 4 hr, direction of change down): −1.242
logFC CDK5 (Q00535) ([5]; experiment wp160, 1 hr): −0.3257
logFC CDK5 (Q00535) ([5]; experiment wp160, 1 hr, direction of change down): −0.3257
logFC CDK5 (Q00535) ([5]; experiment wp160, 2 hr, direction of change down): −0.6265
logFC CDK5 (Q00535) ([5]; experiment wp160, 4 hr): −1.197
logFC CDK5 (Q00535) ([5]; experiment wp160, 4 hr, direction of change down): −1.197
logFC CDK5 (Q00535) ([5]; experiment wp172, direction of change down): −1.304
logFC of CDK17 ([6]; experiment wp016): −0.7341
logFC of CDK17 ([6]; experiment wp016, 1 uM): −0.7503
logFC of CDK17 ([6]; experiment wp103): −0.6015
logFC of CDK17 ([6]; experiment wp105): −0.732
logFC of CDK17 ([6]; experiment wp107): −0.6145
logFC of CDK17 ([6]; experiment wp133, 2 hr): −0.372
logFC of CDK17 ([6]; experiment wp133, 4 hr): −0.611
logFC of CDK17 ([6]; experiment wp160, 4 hr): −0.3952
logFC of CDK17 ([6]; experiment wp172): −0.7492
logFC CDK17 (Q00537) ([6]; Experiment wp105): −0.732
logFC CDK17 (Q00537) ([6]; experiment wp016, 1 uM): −0.7503
logFC CDK17 (Q00537) ([6]; experiment wp016): −0.7341
logFC CDK17 (Q00537) ([6]; experiment wp103): −0.6015
logFC CDK17 (Q00537) ([6]; experiment wp107): −0.6145
logFC CDK17 (Q00537) ([6]; experiment wp133, 2 hr): −0.372
logFC CDK17 (Q00537) ([6]; experiment wp133, 4 hr): −0.611
logFC CDK17 (Q00537) ([6]; experiment wp160, 4 hr): −0.3952
logFC CDK17 (Q00537) ([6]; experiment wp172): −0.7492
logFC COQ8A (Q8N160-1) [7]: −0.7959
logFC COQ8A (Q8NI60-1) [7]: −0.7959
logFC ([2]; 1 uM): −1.077
logFC ([2]; 2 hr): −0.3453
logFC ([2]; 4 hr): −0.8519 and −0.7658
logFC ABL2 (P42684) ([2]; Experiment wp107): −1.032
logFC ABL2 (P42684) ([2]; experiment wp016): −0.4963
logFC ABL2 (P42684) ([2]; experiment wp016, 1 uM): −1.077
logFC ABL2 (P42684) ([2]; experiment wp133, 2 hr): −0.3453
logFC ABL2 (P42684) ([2]; experiment wp133, 4 hr): −0.8519
logFC ABL2 (P42684) ([2]; experiment wp160, 4 hr): −0.7658
logFC LIMK1 [3, 8]: −1.238
logFC LIMK1 [3, 9]: −1.464
logFC LIMK1 [3, 10]: −0.8704
logFC LIMK1 ([3]; direction down, experiment wp114): −0.546
logFC LIMK1 ([3]; direction down, experiment wp133, 1 hr): −0.4117
logFC LIMK1 ([3]; direction down, experiment wp133, 2 hr): −0.8026
logFC LIMK1 ([3]; direction down, experiment wp133, 4 hr): −1.371
logFC LIMK1 [3, 11]: −0.8634
logFC LIMK1 [3, 12]: −1.366
logFC LIMK1 [3, 13]: −1.869
logFC LIMK1 ([3]; experiment wp103, down): −1.238
logFC LIMK1 ([3]; experiment wp105, down): −1.464
logFC LIMK1 ([3]; experiment wp107, down): −0.8704
logFC LIMK1 ([3]; experiment wp114, down): −0.546
logFC LIMK1 ([3]; experiment wp133, 1 hr, down): −0.4117
logFC LIMK1 ([3]; experiment wp133, 2 hr, down): −0.8026
logFC LIMK1 ([3]; experiment wp133, 4 hr, down): −1.371
logFC LIMK1 ([3]; experiment wp160, 2 hr, down): −0.8634
logFC LIMK1 ([3]; experiment wp160, 4 hr, down): −1.366
logFC LIMK1 ([3]; experiment wp172, down): −1.869

From patent US20240269139A1, “COMPOUNDS FOR TARGETED PROTEIN DEGRADATION OF KINASES” (DANA-FARBER CANCER INSTITUTE, INC., priority 2020, published 2024)
